PubChem BioAssay (NCI)
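Cultured in 96-well plates, cells were exposed to test compound for 48 hours across five concentrations. TGI: concentration producing complete growth inhibition.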

Legend:
Assay in all cases: inhibition of tumour cell growth, NCI panel, 48 h
NCI-H460 lung = test system: NCI-H460 lung
UACC-62 melanoma = test system: UACC-62 melanoma
RXF-631 renal = test system: RXF-631 renal
HCT-15 colon = test system: HCT-15 colon
SNB-75 CNS = test system: SNB-75 CNS
ACHN renal = test system: ACHN renal
A498 renal = test system: A498 renal
A549 NSCLC = test system: A549 NSCLC
KM20L2 colon = test system: KM20L2 colon
IGROV1 ovarian = test system: IGROV1 ovarian
OVCAR-8 ovarian = test system: OVCAR-8 ovarian
UACC-257 melanoma = test system: UACC-257 melanoma
HOP-62 NSCLC = test system: HOP-62 NSCLC
COLO 205 colon = test system: COLO 205 colon
SNB-78 CNS = test system: SNB-78 CNS
SF-268 CNS = test system: SF-268 CNS
M14 melanoma = test system: M14 melanoma
RXF 393 renal = test system: RXF 393 renal
SW-620 colon = test system: SW-620 colon
EKVX NSCLC = test system: EKVX NSCLC
LOX IMVI melanoma = test system: LOX IMVI melanoma
OVCAR-4 ovarian = test system: OVCAR-4 ovarian
SF-295 CNS = test system: SF-295 CNS
KM12 colon = test system: KM12 colon
HCC-2998 colon = test system: HCC-2998 colon
DLD-1 colon = test system: DLD-1 colon
CAKI-1 renal = test system: CAKI-1 renal
SK-OV-3 ovarian = test system: SK-OV-3 ovarian
DMS 273 small cell lung = test system: DMS 273 small cell lung
TK-10 renal = test system: TK-10 renal
LXFL 529 NSCLC = test system: LXFL 529 NSCLC
MALME-3M melanoma = test system: MALME-3M melanoma
UO-31 renal = test system: UO-31 renal
OVCAR-5 ovarian = test system: OVCAR-5 ovarian
SF-539 CNS = test system: SF-539 CNS
HOP-92 NSCLC = test system: HOP-92 NSCLC
SN12C renal = test system: SN12C renal
NCI-H226 lung = test system: NCI-H226 lung
U251 CNS = test system: U251 CNS
OVCAR-3 ovarian = test system: OVCAR-3 ovarian
M19-MEL melanoma = test system: M19-MEL melanoma
786-0 renal = test system: 786-0 renal
XF 498 CNS = test system: XF 498 CNS
HT29 colon = test system: HT29 colon
NCI-H23 lung = test system: NCI-H23 lung
HCT-116 colon = test system: HCT-116 colon
SK-MEL-5 melanoma = test system: SK-MEL-5 melanoma
DMS 114 small cell lung = test system: DMS 114 small cell lung
SK-MEL-28 melanoma = test system: SK-MEL-28 melanoma
CCRF-CEM leukemia = test system: CCRF-CEM leukemia
SNB-19 CNS = test system: SNB-19 CNS
RPMI-8226 leukemia = test system: RPMI-8226 leukemia
K-562 leukemia = test system: K-562 leukemia
HL-60(TB) leukemia = test system: HL-60(TB) leukemia
SK-MEL-2 melanoma = test system: SK-MEL-2 melanoma
NCI-H522 lung = test system: NCI-H522 lung
MOLT-4 leukemia = test system: MOLT-4 leukemia

COc1ccc(OC)c2[nH]c(Sc3c([N+](=O)[O-])ncn3C)nc12 was tested, and the TGI (NCI-H460 lung) was > 100 µM, the TGI (UACC-62 melanoma) was 34.1 µM and the TGI (RXF-631 renal) was 35.9 µM. For the same compound, the TGI (HCT-15 colon) was 38.8 µM, the TGI (SNB-75 CNS) was > 100 µM and the TGI (ACHN renal) was > 100 µM. The TGI (A498 renal) was 97.3 µM, the TGI (A549 NSCLC) was > 100 µM and the TGI (KM20L2 colon) was 60.6 µM. The TGI (IGROV1 ovarian) was 85.7 µM, the TGI (OVCAR-8 ovarian) was 50.1 µM and the TGI (UACC-257 melanoma) was 30.1 µM. For the same compound, the TGI (HOP-62 NSCLC) was > 100 µM, the TGI (COLO 205 colon) was 26.6 µM and the TGI (SNB-78 CNS) was > 100 µM. It also gave a TGI (SF-268 CNS) of 68.6 µM, a TGI (M14 melanoma) of 88.3 µM and a TGI (RXF 393 renal) of 60.1 µM. The TGI (SW-620 colon) was > 100 µM, the TGI (EKVX NSCLC) was 51.2 µM and the TGI (LOX IMVI melanoma) was > 100 µM. The TGI (OVCAR-4 ovarian) was 64.7 µM, the TGI (SF-295 CNS) was > 100 µM and the TGI (KM12 colon) was > 100 µM. For the same compound, the TGI (HCC-2998 colon) was 38.4 µM, the TGI (DLD-1 colon) was 48.8 µM and the TGI (CAKI-1 renal) was 42.6 µM. For the same compound, the TGI (SK-OV-3 ovarian) was > 100 µM, the TGI (DMS 273 small cell lung) was 41.3 µM and the TGI (TK-10 renal) was 61.6 µM. It also gave a TGI (LXFL 529 NSCLC) of 27.3 µM, a TGI (MALME-3M melanoma) of 29.3 µM and a TGI (UO-31 renal) of 93.5 µM. The TGI (OVCAR-5 ovarian) was > 100 µM, the TGI (SF-539 CNS) was 34.2 µM and the TGI (HOP-92 NSCLC) was 44.4 µM. For the same compound, the TGI (SN12C renal) was 37.8 µM, the TGI (NCI-H226 lung) was 47.4 µM and the TGI (U251 CNS) was > 100 µM. The TGI (OVCAR-3 ovarian) was 45.6 µM, the TGI (M19-MEL melanoma) was 50.2 µM and the TGI (786-0 renal) was > 100 µM. For the same compound, the TGI (XF 498 CNS) was 43.5 µM, the TGI (HT29 colon) was > 100 µM and the TGI (NCI-H23 lung) was 51.9 µM. The TGI (HCT-116 colon) was 51.6 µM, the TGI (SK-MEL-5 melanoma) was 35.4 µM and the TGI (DMS 114 small cell lung) was 35.1 µM. It also gave a TGI (SK-MEL-28 melanoma) of 54.6 µM.

COC(=O)C1=C(C(=O)OC)C2(CCCCCC2=O)OC1=O (centres undefined) was tested, and the TGI (CCRF-CEM leukemia) was > 100 µM, the TGI (NCI-H460 lung) was > 100 µM and the TGI (UACC-62 melanoma) was > 100 µM. The TGI (RXF-631 renal) was > 100 µM, the TGI (HCT-15 colon) was > 100 µM and the TGI (SNB-75 CNS) was > 100 µM. For the same compound, the TGI (ACHN renal) was > 100 µM, the TGI (A498 renal) was > 100 µM and the TGI (A549 NSCLC) was > 100 µM. The TGI (KM20L2 colon) was > 100 µM, the TGI (IGROV1 ovarian) was > 100 µM and the TGI (OVCAR-8 ovarian) was > 100 µM. For the same compound, the TGI (UACC-257 melanoma) was > 100 µM, the TGI (HOP-62 NSCLC) was > 100 µM and the TGI (COLO 205 colon) was > 100 µM. The TGI (SNB-78 CNS) was > 100 µM, the TGI (SF-268 CNS) was > 100 µM and the TGI (M14 melanoma) was > 100 µM. For the same compound, the TGI (RXF 393 renal) was > 100 µM, the TGI (SNB-19 CNS) was > 100 µM and the TGI (SW-620 colon) was > 100 µM. The TGI (EKVX NSCLC) was > 100 µM, the TGI (OVCAR-4 ovarian) was > 100 µM and the TGI (SF-295 CNS) was > 100 µM. The TGI (KM12 colon) was > 100 µM, the TGI (HCC-2998 colon) was > 100 µM and the TGI (CAKI-1 renal) was > 100 µM. The TGI (RPMI-8226 leukemia) was > 100 µM, the TGI (SK-OV-3 ovarian) was > 100 µM and the TGI (DMS 273 small cell lung) was > 100 µM. The TGI (TK-10 renal) was > 100 µM, the TGI (LXFL 529 NSCLC) was > 100 µM and the TGI (MALME-3M melanoma) was > 100 µM. For the same compound, the TGI (K-562 leukemia) was > 100 µM, the TGI (HL-60(TB) leukemia) was > 100 µM and the TGI (OVCAR-5 ovarian) was > 100 µM. For the same compound, the TGI (SK-MEL-2 melanoma) was > 100 µM, the TGI (SF-539 CNS) was > 100 µM and the TGI (HOP-92 NSCLC) was > 100 µM. The TGI (SN12C renal) was > 100 µM, the TGI (NCI-H226 lung) was > 100 µM and the TGI (U251 CNS) was > 100 µM. For the same compound, the TGI (OVCAR-3 ovarian) was > 100 µM, the TGI (M19-MEL melanoma) was > 100 µM and the TGI (786-0 renal) was > 100 µM. The TGI (XF 498 CNS) was > 100 µM, the TGI (HT29 colon) was > 100 µM and the TGI (NCI-H23 lung) was > 100 µM. The TGI (HCT-116 colon) was > 100 µM, the TGI (SK-MEL-5 melanoma) was > 100 µM and the TGI (DMS 114 small cell lung) was > 100 µM. The TGI (SK-MEL-28 melanoma) was > 100 µM, the TGI (NCI-H522 lung) was > 100 µM and the TGI (MOLT-4 leukemia) was > 100 µM.

With S=C(Nc1ccccc1)Nc1ccccc1SC(/C=C/NNC1=NC(c2ccccc2)C(c2ccccc2)=NN1)c1ccccc1 (centres undefined) the TGI (CCRF-CEM leukemia) was > 100 µM, the TGI (NCI-H460 lung) was > 100 µM and the TGI (UACC-62 melanoma) was > 100 µM. For the same compound, the TGI (RXF-631 renal) was > 100 µM, the TGI (HCT-15 colon) was > 100 µM and the TGI (ACHN renal) was > 100 µM. The TGI (A498 renal) was > 100 µM, the TGI (A549 NSCLC) was > 100 µM and the TGI (KM20L2 colon) was > 100 µM. For the same compound, the TGI (IGROV1 ovarian) was > 100 µM, the TGI (OVCAR-8 ovarian) was > 100 µM and the TGI (HOP-62 NSCLC) was 64.5 µM. The TGI (COLO 205 colon) was > 100 µM, the TGI (SNB-78 CNS) was > 100 µM and the TGI (SF-268 CNS) was > 100 µM. For the same compound, the TGI (M14 melanoma) was > 100 µM, the TGI (RXF 393 renal) was 44.6 µM and the TGI (SNB-19 CNS) was > 100 µM. For the same compound, the TGI (SW-620 colon) was > 100 µM, the TGI (EKVX NSCLC) was > 100 µM and the TGI (LOX IMVI melanoma) was > 100 µM. For the same compound, the TGI (OVCAR-4 ovarian) was > 100 µM, the TGI (SF-295 CNS) was > 100 µM and the TGI (KM12 colon) was > 100 µM. The TGI (HCC-2998 colon) was > 100 µM, the TGI (DLD-1 colon) was > 100 µM and the TGI (CAKI-1 renal) was > 100 µM. The TGI (RPMI-8226 leukemia) was > 100 µM, the TGI (SK-OV-3 ovarian) was > 100 µM and the TGI (DMS 273 small cell lung) was > 100 µM. The TGI (TK-10 renal) was > 100 µM, the TGI (MALME-3M melanoma) was > 100 µM and the TGI (K-562 leukemia) was > 100 µM. The TGI (HL-60(TB) leukemia) was > 100 µM, the TGI (OVCAR-5 ovarian) was > 100 µM and the TGI (SK-MEL-2 melanoma) was > 100 µM. For the same compound, the TGI (SF-539 CNS) was > 100 µM, the TGI (HOP-92 NSCLC) was 84.2 µM and the TGI (SN12C renal) was > 100 µM. The TGI (U251 CNS) was > 100 µM, the TGI (OVCAR-3 ovarian) was > 100 µM and the TGI (M19-MEL melanoma) was > 100 µM. The TGI (786-0 renal) was > 100 µM, the TGI (XF 498 CNS) was > 100 µM and the TGI (HT29 colon) was > 100 µM. For the same compound, the TGI (HCT-116 colon) was > 100 µM, the TGI (SK-MEL-5 melanoma) was > 100 µM and the TGI (DMS 114 small cell lung) was > 100 µM. The TGI (SK-MEL-28 melanoma) was > 100 µM, the TGI (NCI-H522 lung) was > 100 µM and the TGI (MOLT-4 leukemia) was > 100 µM.
